Test [1] deals with B7-supertype molecules (B*0702, B*3501, B*5101, B*5301, B*5401). Description: B7-supertype cross-reactive binding. The arrangement: species or system human. The settings on record: of five B7-supertype alleles tested.
Another test addresses HLA-B*0702 (Homo sapiens, UniProt P01889). The format is binding.
[2] abbreviates: Table XXIV, B7 supermotif peptides.

Like-named read-outs stand apart in the source and are kept apart here. Where no end group is shown, it is not given here.

As a reminder, the IC50 is the concentration that inhibits the measured activity by half. Regarding `CC[C@H](C)[C@H](NC(=O)[C@@H](NC(=O)[C@H](CO)NC(=O)[C@H](CC(=O)O)NC(=O)[C@H](CC(C)C)NC(=O)[C@@H]1CCCN1C(=O)[C@H](CO)NC(=O)[C@H](C)NC(=O)[C@@H]1CCCN1C(=O)[C@@H](N)Cc1ccccc1)[C@@H](C)O)C(=O)O` [Her2/neu.995.F1I10], in test [1], the “No. of B7 Alleles Crossbound” value was 5. This compound also showed an IC50 against HLA-B*0702 (setting [2]) of 20 nM.

Consider `CC(C)C[C@H](NC(=O)[C@@H]1CCCN1C(=O)[C@H](CO)NC(=O)[C@@H]1CCCN1C(=O)[C@H](CC(=O)O)NC(=O)[C@H](Cc1c[nH]cn1)NC(=O)[C@@H](NC(=O)[C@@H]1CCCN1C(=O)[C@@H](N)Cc1ccccc1)[C@@H](C)O)C(=O)O` [Her2/neu.1101.F1], for which the “No. of B7 Alleles Crossbound” value in test [1] worked out at 3. At HLA-B*0702 (setting [2]), this compound showed an IC50 of 10 nM.

Turning to FPSGVKPDI [Her2/neu.600.F1I9], in test [1], the “No. of B7 Alleles Crossbound” value is reported as 3. Besides, the concentration for half-maximal inhibition (IC50) at HLA-B*0702 (setting [2]) was found to be 6.3 nM.

On to `CC[C@H](C)[C@H](NC(=O)[C@H](CO)NC(=O)[C@@H](NC(=O)[C@H](CC(C)C)NC(=O)[C@@H]1CCCN1C(=O)[C@@H](N)CO)[C@@H](C)O)C(=O)N[C@H](C(=O)N[C@@H](CO)C(=O)N[C@@H](C)C(=O)N[C@H](C(=O)O)C(C)C)[C@@H](C)CC` [Her2/neu.649], for which the “No. of B7 Alleles Crossbound” value in test [1] was 1. This compound also showed an IC50 against HLA-B*0702 (setting [2]) of 61 nM.

In the case of `CC[C@H](C)[C@H](NC(=O)[C@H](CO)NC(=O)[C@H](CCCNC(=N)N)NC(=O)[C@H](Cc1ccc(O)cc1)NC(=O)[C@H](Cc1ccccc1)NC(=O)[C@@H](NC(=O)[C@H](CO)NC(=O)[C@H](CC(=O)O)NC(=O)[C@H](CC(C)C)NC(=O)[C@@H]1CCCN1C(=O)[C@@H](N)Cc1ccccc1)[C@@H](C)O)C(=O)O` [Her2/neu.998.F1I11], in test [1], the “No. of B7 Alleles Crossbound” value was found to be 3. Further, the IC50 at HLA-B*0702 (setting [2]) was 229 nM.

As to `CC[C@H](C)[C@H](NC(=O)[C@@H](NC(=O)[C@H](Cc1ccc(O)cc1)NC(=O)[C@H](CCCNC(=N)N)NC(=O)CNC(=O)[C@H](CCC(=O)O)NC(=O)[C@@H]1CCCN1C(=O)[C@H](CC(N)=O)NC(=O)[C@@H]1CCCN1C(=O)[C@@H](N)Cc1ccccc1)[C@@H](C)O)C(=O)O` [Her2/neu.282.F1], the “No. of B7 Alleles Crossbound” value in test [1] worked out at 5. The IC50 on HLA-B*0702 (setting [2]) stood at 324 nM.

Take `CC(C)[C@H](NC(=O)[C@H](Cc1ccc(O)cc1)NC(=O)CNC(=O)[C@H](CC(=O)O)NC(=O)[C@@H](NC(=O)[C@H](CCC(=O)O)NC(=O)[C@H](CO)NC(=O)[C@@H]1CCCN1C(=O)[C@@H](N)Cc1ccccc1)[C@@H](C)O)C(=O)O` [Her2/neu.1120.F1]: the “No. of B7 Alleles Crossbound” value in test [1] was 3. The 50% inhibitory concentration (IC50) against HLA-B*0702 (setting [2]) was found to be 204 nM.

With `CC[C@H](C)[C@H](NC(=O)[C@@H](NC(=O)[C@H](CCCNC(=N)N)NC(=O)[C@H](CCSC)NC(=O)[C@H](CCC(N)=O)NC(=O)[C@H](C)NC(=O)[C@H](CCC(N)=O)NC(=O)[C@H](CC(N)=O)NC(=O)[C@@H]1CCCN1C(=O)[C@@H](N)Cc1ccccc1)[C@@H](C)CC)C(=O)O` [Her2/neu.706.F1I10], in test [1], the “No. of B7 Alleles Crossbound” value is 4. Besides, on HLA-B*0702 (setting [2]), the IC50 is 290 nM.

For `CC[C@H](C)[C@H](NC(=O)[C@@H](NC(=O)[C@H](C)NC(=O)[C@H](CO)NC(=O)[C@@H](NC(=O)[C@@H](NC(=O)[C@H](CO)NC(=O)[C@@H](NC(=O)[C@H](CC(C)C)NC(=O)[C@@H]1CCCN1C(=O)[C@@H](N)Cc1ccccc1)[C@@H](C)O)[C@@H](C)CC)[C@@H](C)CC)C(C)C)C(=O)O` [Her2/neu.649.F1I11], the “No. of B7 Alleles Crossbound” value in test [1] came out at 5. In addition, the IC50 against HLA-B*0702 (setting [2]) worked out at 367 nM.

Take CPSGVKPDLSY [Her2/neu.600]: in test [1], the “No. of B7 Alleles Crossbound” value was found to be 1. The IC50 against HLA-B*0702 (setting [2]) worked out at 183 nM.

As to FPAEQRASPI [Her2/neu.642.F1I10], the “No. of B7 Alleles Crossbound” value in test [1] was 3. Moreover, it took 3.1 nM to reach half-maximal inhibition against HLA-B*0702 (setting [2]) (IC50).

Consider `CC[C@H](C)[C@H](NC(=O)[C@@H]1CCCN1C(=O)[C@H](CC(C)C)NC(=O)[C@@H]1CCCN1C(=O)CNC(=O)[C@H](CCC(=O)O)NC(=O)[C@H](CCCNC(=N)N)NC(=O)[C@@H]1CCCN1C(=O)[C@H](CO)NC(=O)[C@@H]1CCCN1C(=O)[C@@H](N)Cc1ccccc1)C(=O)O` [Her2/neu.1149.F1I11], for which, in test [1], the “No. of B7 Alleles Crossbound” value was found to be 3. Moreover, at HLA-B*0702 (setting [2]), 190 nM corresponded to half-maximal inhibition (IC50).

As for `CC[C@H](C)[C@H](NC(=O)[C@H](C)NC(=O)[C@H](CO)NC(=O)[C@@H](NC(=O)[C@@H](NC(=O)[C@H](CO)NC(=O)[C@@H](NC(=O)[C@H](CC(C)C)NC(=O)[C@@H]1CCCN1C(=O)[C@@H](N)Cc1ccccc1)[C@@H](C)O)[C@@H](C)CC)[C@@H](C)CC)C(=O)O` [Her2/neu.649.F1I10], the “No. of B7 Alleles Crossbound” value in test [1] was 5. This compound came in with a half-inhibitory concentration (IC50) against HLA-B*0702 (setting [2]) of 229 nM.

On to `CC[C@H](C)[C@H](NC(=O)[C@@H](NC(=O)[C@H](Cc1ccc(O)cc1)NC(=O)[C@H](CCCNC(=N)N)NC(=O)CNC(=O)[C@H](CCC(=O)O)NC(=O)[C@@H]1CCCN1C(=O)[C@H](CC(N)=O)NC(=O)[C@@H]1CCCN1C(=O)[C@@H](N)CCSC)[C@@H](C)O)C(=O)O` [Her2/neu.282.I10], for which the “No. of B7 Alleles Crossbound” value in test [1] is recorded as 5. Moreover, the IC50 on HLA-B*0702 (setting [2]) came to 34 nM.

Turning to `CC[C@H](C)[C@H](NC(=O)[C@H](CCC(=O)O)NC(=O)[C@H](CCCNC(=N)N)NC(=O)[C@H](C)NC(=O)[C@@H]1CCCN1C(=O)[C@@H](NC(=O)CNC(=O)[C@H](CC(=O)O)NC(=O)[C@H](Cc1ccc(O)cc1)NC(=O)[C@@H]1CCCN1C(=O)[C@@H](N)Cc1ccccc1)[C@@H](C)CC)C(=O)O` [Her2/neu.921.F1I11], the “No. of B7 Alleles Crossbound” value in test [1] came to 4. The same compound displayed an IC50 on HLA-B*0702 of 141 nM.

In the case of FPYDGIPI [Her2/neu.921.F1I8], the “No. of B7 Alleles Crossbound” value in test [1] turned out to be 5. The compound also registered an IC50 on HLA-B*0702 (setting [2]) of 177 nM.

Turning to `CC(C)C[C@H](NC(=O)[C@H](C)NC(=O)[C@H](CCC(N)=O)NC(=O)[C@H](Cc1c[nH]cn1)NC(=O)[C@@H]1CCCN1C(=O)[C@@H](N)Cc1ccccc1)C(=O)N[C@@H](CC(C)C)C(=O)N[C@@H](Cc1c[nH]cn1)C(=O)N[C@H](C(=O)N[C@@H](C)C(=O)O)[C@@H](C)O` [Her2/neu.488.F1], the “No. of B7 Alleles Crossbound” value in test [1] worked out at 3. The half-inhibitory concentration (IC50) against HLA-B*0702 (setting [2]) is 393 nM.

Consider `CC(C)C[C@H](NC(=O)[C@H](CO)NC(=O)[C@H](CCCNC(=N)N)NC(=O)[C@H](Cc1ccc(O)cc1)NC(=O)[C@H](Cc1ccccc1)NC(=O)[C@@H](NC(=O)[C@H](CO)NC(=O)[C@H](CC(=O)O)NC(=O)[C@H](CC(C)C)NC(=O)[C@@H]1CCCN1C(=O)[C@@H](N)Cc1ccccc1)[C@@H](C)O)C(=O)O` [Her2/neu.998.F1], for which the “No. of B7 Alleles Crossbound” value in test [1] was determined as 4. On HLA-B*0702 (setting [2]), this compound yielded an IC50 of 42 nM.

For the compound `CC[C@H](C)[C@H](NC(=O)[C@@H](NC(=O)[C@@H](NC(=O)[C@H](CCC(=O)O)NC(=O)[C@H](CCC(N)=O)NC(=O)[C@H](CC(N)=O)NC(=O)[C@H](Cc1c[nH]cn1)NC(=O)[C@H](CC(C)C)NC(=O)[C@@H]1CCCN1C(=O)[C@@H](N)CS)C(C)C)[C@@H](C)O)C(=O)O` [Her2/neu.315.I10], in test [1], the “No. of B7 Alleles Crossbound” value is reported as 3. On HLA-B*0702 (setting [2]), this compound returned an IC50 of 458 nM.

These data come from patent US20040121946A9, “Inducing cellular immune responses to her2/neu using peptide and nucleic acid compositions” (priority 2002, published 2004).
